Experimental data as given in PMC6522510 (Nature Communications, 2019).
pEC50: −log10 of the molar value. Read-outs that look alike come from different tables or passages of the source.

Tests used:
MOLM-13 [1] = test: cells; design: species or system AML cell lines (8); Secondary HTS, 10-point dose-response in triplicate, Cell Titer Glo viability, four-parameter fit EC50; settings: Homo sapiens, MOLM-13, 72 h, read-out: MOLM-13
MV4-11 [2] = test: cells; design: species or system AML cell lines (8); Secondary HTS, 10-point dose-response in triplicate, Cell Titer Glo viability, four-parameter fit EC50; settings: Homo sapiens, MV4-11, 72 h, read-out: MV4-11
M07e = test: cells; design: species or system AML cell lines (8); Secondary HTS, 10-point dose-response in triplicate, Cell Titer Glo viability, four-parameter fit EC50; settings: M-07e, 72 h, read-out: M07e
CMS = test: cells; design: species or system AML cell lines (8); Secondary HTS, 10-point dose-response in triplicate, Cell Titer Glo viability, four-parameter fit EC50; settings: 72 h, read-out: CMS
U937 [3] = test: Secondary dose-response HTS, Cell Titer Glo; format: cell-based, human; settings: for pEC50: Homo sapiens
CMK [4] = test: Secondary dose-response HTS, Cell Titer Glo; format: cell-based, human; settings: CMK; for pEC50: Homo sapiens, read-out: average effective concentration, CMK
MOLM-13 [5] = test: Secondary dose-response HTS, Cell Titer Glo; format: cell-based, human; settings: for pEC50: Homo sapiens
CHRF288-11 [6] = test: Secondary dose-response HTS, Cell Titer Glo; format: cell-based, human; settings: secondary high-throughput screen, CHRF288-11; for pEC50: Homo sapiens, HTS, read-out: average effective concentration, CHRF288-11
MV4-11 [7] = test: Secondary dose-response HTS, Cell Titer Glo; format: cell-based, human; settings: for pEC50: Homo sapiens
ML2 = test: Secondary dose-response HTS, Cell Titer Glo; format: cell-based, human; settings: for pEC50: Homo sapiens
U937 [8] = test: cells; design: species or system AML cell lines (8); Secondary HTS, 10-point dose-response in triplicate, Cell Titer Glo viability, four-parameter fit EC50; settings: Homo sapiens, U-937, 72 h, read-out: U937
CHRF288-11 [9] = test: cells; design: species or system AML cell lines (8); Secondary HTS, 10-point dose-response in triplicate, Cell Titer Glo viability, four-parameter fit EC50; settings: 72 h, read-out: CHRF288-11
CMK [10] = test: cells; design: species or system AML cell lines (8); Secondary HTS, 10-point dose-response in triplicate, Cell Titer Glo viability, four-parameter fit EC50; settings: Homo sapiens, CMK, 72 h, read-out: CMK
[11] = U-937, secondary high-throughput screen, U937, read-out: average effective concentration, U937
[12] = secondary high-throughput screen
[13] = secondary high-throughput screen, MOLM-13, read-out: average effective concentration, MOLM-13
[14] = secondary high-throughput screen, MV4-11, read-out: average effective concentration, MV4-11
[15] = secondary high-throughput screen, ML-2, read-out: average effective concentration, ML-2
[16] = secondary high-throughput screen, U937
[17] = secondary high-throughput screen, MOLM-13
[18] = secondary high-throughput screen, MV4-11
[19] = U-937, read-out: average effective concentration, U937
[20] = ML-2, read-out: average effective concentration, ML-2

Row | Structure (SMILES) | pEC50 (MV4-11 [2]) | pEC50 (MOLM-13 [5]; [13]) | pEC50 (MV4-11 [7]; [14]) | pEC50 (U937 [8]) | pEC50 (M07e) | pEC50 (CMS) | pEC50 (CHRF288-11 [6]) | pEC50 (ML2; [15]) | pEC50 (CHRF288-11 [9]) | pEC50 (CMK [10]) | further results
1 | O=C(CCCCCN1C(=O)c2cccc3cccc(c23)C1=O)NO | < 5.00 |  |  |  |  |  |  |  |  |  | pEC50 (MOLM-13 [1]): < 5.00
2 | C[C@H]1[C@H](OC(=O)CCC(=O)O)O[C@@H]2O[C@@]3(C)CC[C@H]4[C@H](C)CC[C@@H]1[C@@]24OO3 [Artesunate] | < 5.00 |  |  |  |  |  |  |  |  | < 5.00 | 
3 | C[C@@]1(C(=O)Nc2ccc(F)nc2)CCCN1c1nc(Nc2cc(C3CC3)n[nH]2)c2cccn2n1 [BMS-754807] |  | 5.08 | 5.00 | < 5.00 | < 5.00 | < 5.00 |  | 5.70 | < 5.00 |  | pEC50 (CMK [4]; [12]): 5.70
4 | CC(C)C[C@H](NC(=O)[C@H](Cc1ccccc1)NC(=O)c1cnccn1)B(O)O [Bortezomib] |  |  |  |  |  |  |  |  | 8.68 |  | 
5 | COc1cc2ncnc(-n3nc(-c4ccccn4)nc3N)c2cc1OC [CP-466722] |  |  |  |  |  |  |  |  |  |  | average effective concentration, U937 (U937 [3]; [16]): Inactive; average effective concentration, CMK (CMK [4]; [12]): Inactive; average effective concentration, MOLM-13 (MOLM-13 [5]; [17]): Inactive; average effective concentration, CHRF288-11 (CHRF288-11 [6]): Inactive; average effective concentration, MV4-11 (MV4-11 [7]; [18]): Inactive; average effective concentration, ML-2 (ML2; secondary high-throughput screen, ML-2): Inactive
6 | CO[C@@H](C(=O)N1Cc2n[nH]c(NC(=O)c3ccc(N4CCN(C)CC4)cc3)c2C1)c1ccccc1 [DANUSERTIB] |  | 5.85 | 6.32 |  | < 5.00 | < 5.00 |  | 6.21 | < 5.00 |  | pEC50 (U937 [3]; [11]): 5.42; pEC50 (CMK [4]): < 5.00
7 | CN1c2ccccc2C(=O)N2CCc3c([nH]c4ccccc34)[C@H]21 [EVODIAMINE] | < 5.00 |  |  |  |  |  |  |  | < 5.00 |  | pEC50 (MOLM-13 [1]): < 5.00
8 | CN(Cc1cnc2nc(N)nc(N)c2n1)c1ccc(C(=O)N[C@@H](CCC(=O)O)C(=O)O)cc1 [METHOTREXATE] | < 5.00 | < 5.00 |  | < 5.00 | < 5.00 | < 5.00 | 9.00 | 9.00 |  |  | pEC50 (CMK [4]; [12]): 8.35
9 | NC(=O)c1cccc2cn(-c3ccc([C@@H]4CCCNC4)cc3)nc12 [NIRAPARIB] |  | 5.12 | < 5.00 |  |  |  | 6.66 | 6.74 |  |  | pEC50 (U937 [3]; [11]): < 5.00; pEC50 (CMK [4]; [12]): 6.55
10 | O=c1cc(N2CCOCC2)oc2c(-c3cccc4c3sc3ccccc34)cccc12 [NU 7441] |  |  |  |  |  |  |  |  |  |  | average effective concentration, U937 (U937 [3]; [16]): Inactive; average effective concentration, CMK (CMK [4]; [12]): Inactive; average effective concentration, MOLM-13 (MOLM-13 [5]; [17]): Inactive; average effective concentration, CHRF288-11 (CHRF288-11 [6]): Inactive; average effective concentration, MV4-11 (MV4-11 [7]; [18]): Inactive
11 | CCNC(=O)c1noc(-c2cc(C(C)C)c(O)cc2O)c1-c1ccc(CN2CCOCC2)cc1 [NVP-AUY922] |  | 9.00 | 9.00 |  | < 5.00 | < 5.00 | 7.68 | 7.64 |  |  | pEC50 (U937 [3]; [11]): 9.00; pEC50 (CMK [4]; [12]): 9.00
12 | COc1ccc(-c2ccc3ncc4c(c3c2)n(-c2ccc(N3CCNCC3)c(C(F)(F)F)c2)c(=O)n4C)cn1 [NVP-BGT226] |  |  |  |  |  |  |  |  |  |  | pEC50 (MOLM-13 [1]): 6.94
13 | O=C(NOC[C@H](O)CO)c1ccc(F)c(F)c1Nc1ccc(I)cc1F [PD-0325901] | < 5.00 | 6.04 |  | < 5.00 | < 5.00 | < 5.00 | < 5.00 | 9.00 |  | < 5.00 | 
14 | Nc1nc2[nH]cc(CCc3ccc(C(=O)N[C@@H](CCC(=O)O)C(=O)O)cc3)c2c(=O)[nH]1 [PEMETREXED] |  | 7.32 | 7.46 | < 5.00 | < 5.00 | < 5.00 | 7.00 | 7.18 |  | < 5.00 | 
15 | O=C(O)C[C@H](O)C[C@H](O)/C=C/c1c(C2CC2)nc2ccccc2c1-c1ccc(F)cc1 [PITAVASTATIN] |  | 5.28 | 5.12 |  | < 5.00 | < 5.00 | 5.66 | 5.29 |  | < 5.00 | pEC50 (U937 [3]; [11]): 5.07
16 | COc1cc(/C=C/c2ccc(O)cc2)cc(OC)c1 [PTEROSTILBENE] | < 5.00 | < 5.00 |  |  | < 5.00 | < 5.00 |  |  | < 5.00 |  | pEC50 (U937 [3]; [19]): < 5.00; pEC50 (CMK [4]): 5.85; pEC50 (ML2; [20]): < 5.00
17 | Cc1[nH]c2ccccc2c1CCNCc1ccc(/C=C/C(=O)NO)cc1 [Panobinostat] |  |  |  | 7.91 |  |  |  |  |  |  | 
18 | O=C(NC[C@H](O)CO)c1ccncc1Nc1ccc(I)cc1F [Pimasertib] |  |  | 5.20 | < 5.00 | < 5.00 | < 5.00 |  | 9.00 | < 5.00 |  | pEC50 (CMK [4]; [12]): < 5.00; pEC50 (MOLM-13 [1]): < 5.00
19 | CCC(C)(C)C(=O)O[C@H]1C[C@@H](C)C=C2C=C[C@H](C)[C@H](CC[C@@H]3C[C@@H](O)CC(=O)O3)[C@H]21 [SIMVASTATIN] | < 5.00 | < 5.00 |  | < 5.00 | < 5.00 | < 5.00 | 5.39 | < 5.00 |  | < 5.00 | 
20 | CNC(=O)c1cc(Oc2ccc(NC(=O)Nc3ccc(Cl)c(C(F)(F)F)c3)cc2)ccn1 [Sorafenib] | 8.14 |  |  |  | < 5.00 | < 5.00 |  |  | < 5.00 | < 5.00 | 
21 | COc1ccc(C[C@@H](C)[C@@H](C)Cc2ccc(OC)c(OC)c2)cc1OC [TERAMEPROCOL] | < 5.00 | < 5.00 |  |  | < 5.00 | < 5.00 |  | < 5.00 | < 5.00 | < 5.00 | pEC50 (U937 [3]; [11]): < 5.00
22 | Cc1cc(Nc2cc(N3CCN(C)CC3)nc(Sc3ccc(NC(=O)C4CC4)cc3)n2)[nH]n1 [TOZASERTIB] |  |  |  |  |  |  |  |  |  |  | pEC50 (U937 [3]; [19]): < 5.00; pEC50 (CMK [4]): 5.85; pEC50 (MOLM-13 [5]; MOLM-13, read-out: average effective concentration, MOLM-13): 7.41; pEC50 (MV4-11 [7]; MV4-11, read-out: average effective concentration, MV4-11): 7.17; pEC50 (ML2; [20]): < 5.00
23 | CC[C@@H]1C(=O)N(C)c2cnc(Nc3ccc(C(=O)N[C@H]4CC[C@H](N5CCN(CC6CC6)CC5)CC4)cc3OC)nc2N1C(C)C [Volasertib] |  |  |  |  | < 5.00 |  |  |  |  |  | pEC50 (MOLM-13 [1]): 8.11
24 | O=c1ncccn1[C@@H]1O[C@H](CO)[C@@H](O)[C@H]1O [ZEBULARINE] | < 5.00 | 5.96 |  | < 5.00 | < 5.00 | < 5.00 | 5.05 | 6.14 |  | < 5.00 | 
25 | CCN(CCCOc1ccc2c(Nc3cc(CC(=O)Nc4cccc(F)c4)n[nH]3)ncnc2c1)CCOP(=O)(O)O [barasertib] |  |  |  |  | < 5.00 | < 5.00 |  |  | < 5.00 |  | 

Now from value to molecule, other results behind:

Row | pEC50 (MV4-11 [2]) | pEC50 (MOLM-13 [5]; [13]) | pEC50 (MV4-11 [7]; [14]) | pEC50 (U937 [8]) | Structure (SMILES) | pEC50 (M07e) | pEC50 (CMS) | pEC50 (CHRF288-11 [6]) | pEC50 (ML2; [15]) | pEC50 (CHRF288-11 [9]) | pEC50 (CMK [10]) | further results
26 |  | 6.59 | 6.22 |  | COc1cc(N2CCC(N3CCN(C)CC3)CC2)ccc1Nc1ncc(Cl)c(Nc2ccccc2P(C)(C)=O)n1 [AP26113] | < 5.00 | < 5.00 | 5.22 | 5.40 |  |  | pEC50 (U937 [3]; [11]): 5.11; pEC50 (CMK [4]; [12]): 5.19
27 |  | 5.10 | < 5.00 | < 5.00 | COc1cc(N2CCC(N3CCN(C)CC3)CC2)ccc1Nc1ncnc(Nc2ccccc2S(=O)(=O)C(C)C)n1 [ASP3026] | < 5.00 | < 5.00 |  | < 5.00 | < 5.00 |  | pEC50 (CMK [4]; [12]): 5.02
28 |  | 5.60 | 5.41 |  | CS(=O)(=O)N1CCc2c(-c3cnc(N)nc3)nc(N3CCOCC3)nc21 [CH-5132799] | < 5.00 | < 5.00 | 5.03 | 5.16 |  |  | pEC50 (U937 [3]; [11]): 5.40; pEC50 (CMK [4]; [12]): 5.82
29 | < 5.00 | < 5.00 |  | < 5.00 | CN[C@@H](C)C(=O)N[C@H](C(=O)N1CCC[C@H]1c1nc(C(=O)c2ccc(F)cc2)cs1)C1CCCCC1 [LCL-161] | < 5.00 | < 5.00 | 5.07 | 5.30 |  | < 5.00 | 
30 |  | 5.72 | 5.72 |  | CCN1CCN(Cc2ccc(Nc3ncc(F)c(-c4cc(F)c5nc(C)n(C(C)C)c5c4)n3)nc2)CC1 [LY2835219] | < 5.00 | < 5.00 |  | 5.40 | < 5.00 | < 5.00 | pEC50 (U937 [3]; [11]): 5.70
